Data published in article PMC10698726 (Molecular Pharmaceutics, 2023).
Where two headings read alike, the source gives them in different places.

Experiments:
OCT2 = target: T1, OCT2 (Homo sapiens, UniProt O15244); experiment: Inhibition of model substrate uptake in OCT2-overexpressing HEK293 cells; conditions: OCT2, 20 μM inhibitor, 5 min; for inhibition at 5 min, 20 μM: human, OCT2-overexpressing HEK293 cells
T1 sequence (O15244 1-555): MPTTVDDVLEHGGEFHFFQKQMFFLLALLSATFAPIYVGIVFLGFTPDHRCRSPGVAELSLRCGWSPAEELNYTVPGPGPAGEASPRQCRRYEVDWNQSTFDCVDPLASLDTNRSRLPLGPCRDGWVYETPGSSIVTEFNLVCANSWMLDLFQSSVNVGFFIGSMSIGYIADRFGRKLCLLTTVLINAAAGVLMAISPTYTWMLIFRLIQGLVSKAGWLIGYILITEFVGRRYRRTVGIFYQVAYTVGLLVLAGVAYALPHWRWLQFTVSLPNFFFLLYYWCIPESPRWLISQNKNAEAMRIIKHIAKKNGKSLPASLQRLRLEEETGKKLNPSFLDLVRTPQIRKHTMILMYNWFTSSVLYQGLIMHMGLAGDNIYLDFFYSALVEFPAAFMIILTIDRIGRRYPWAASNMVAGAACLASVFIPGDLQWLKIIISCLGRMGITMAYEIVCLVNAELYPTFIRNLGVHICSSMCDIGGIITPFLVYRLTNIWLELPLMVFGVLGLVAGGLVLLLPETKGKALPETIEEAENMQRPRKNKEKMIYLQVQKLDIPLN
Method: (§1) All experiments were carried out in transporter-overexpressing HEK293 cells. OCT1-, OCT2-, NET-, DAT-, and SERT-overexpressing cells as well as the empty-vector transfected control cell line were generated as described earlier,[26]−[28] whereas the OCT3-overexpressing HEK293 cells were generous gift of from Drs. Koepsell and Gorbulev (University of Würzburg, Germany). All cells were cultivated in Dulbecco’s modified Eagle’s medium (DMEM) supplemented with 10% (v/v) FCS, penicillin (100 U/mL), and streptomycin (100 μg/mL) and kept in culture for no longer than 30 passages.
(§2) As for the transport experiments, 300,000 HEK293 cells were plated in poly-D-lysine-coated 24-well plates 2 days ahead of the experiment. On every plate, two wells of empty vector (EV)-transfected cells were used as a control to account for the passive influx of the model substrate, and two wells of transporter-overexpressing cells were used to determine the noninhibited uptake of the model substrate. Cells were initially washed once with 37 °C HBSS+ and then incubated with 2 μM model substrate (0.2 μM for MPP^+ uptake by MATs) with and without 20 μM inhibitor for 5 min. For concentration-dependent inhibition experiments, the cells were incubated with increasing inhibitor concentrations. The incubation was terminated by aspiration of the buffer before cells were washed twice with ice-cold HBSS+ and lysed in 80% acetonitrile. Cell lysates were transferred into a black 96-well plate for the fluorescence measurement of ASP^+ or used for sample preparation for LC–MS/MS analysis. […] Fluorescence quantification was performed in technical duplicates.
(§3) Transporter-mediated net uptake was calculated as the difference between uptake in transporter-overexpressing cells and that in the empty-vector-transfected control. […] Vmax is the maximum transport velocity, while Km is defined as the substance concentration that is required to reach half of vmax. The ratio of vmax over Km is termed intrinsic clearance Clint. For inhibition experiments, the transport activity was calculated by using the following equation [drawing 1]
(§4) SubstrateEV refers to the passive uptake of model substrates into the control cells and substratenoninhibited is the uptake in transporter-overexpressing cells without the presence of any inhibitor. The percent inhibition values are then calculated as described in the following [drawing 2]
(§5) For concentration inhibition experiments, the transporter activity was plotted against the log10 of inhibitor concentrations, and the data were fitted by the following equation to determine IC50 values [drawing 3]
(§6) Y refers to the transporter activity, whereas Ymax is the maximum and Ymin is the minimal transporter activity. X is the log10 of inhibitor concentrations, IC50 is the half-maximal inhibitory concentration, and hill slope is the slope factor.

OCT3 = target: T2, OCT3 (Homo sapiens, UniProt O75751); experiment: Inhibition of model substrate uptake in OCT3-overexpressing HEK293 cells; format: cell-based
T2 construct: expressed in transfected cells; host or cells: HEK293
T2 sequence (O75751 1-556): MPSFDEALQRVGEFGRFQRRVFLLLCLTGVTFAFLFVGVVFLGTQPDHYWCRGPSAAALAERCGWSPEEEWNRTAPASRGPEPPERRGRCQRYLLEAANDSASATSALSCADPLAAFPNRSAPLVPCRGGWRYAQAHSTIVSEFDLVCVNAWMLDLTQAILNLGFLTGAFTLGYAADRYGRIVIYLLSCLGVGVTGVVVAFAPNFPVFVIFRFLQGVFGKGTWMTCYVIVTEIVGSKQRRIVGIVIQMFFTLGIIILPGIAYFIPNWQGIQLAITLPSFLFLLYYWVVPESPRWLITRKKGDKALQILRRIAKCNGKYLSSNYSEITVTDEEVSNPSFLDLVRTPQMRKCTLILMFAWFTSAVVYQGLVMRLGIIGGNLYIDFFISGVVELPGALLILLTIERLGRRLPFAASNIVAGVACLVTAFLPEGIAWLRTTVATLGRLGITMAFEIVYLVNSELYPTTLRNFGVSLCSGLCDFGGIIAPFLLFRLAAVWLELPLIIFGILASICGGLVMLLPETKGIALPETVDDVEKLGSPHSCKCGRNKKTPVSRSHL
Method: as §1, §2, §3, §4, §5, §6

OCT1 = target: T3, OCT1 (Homo sapiens, UniProt O15245); experiment: Inhibition of model substrate uptake in OCT1-overexpressing HEK293 cells; format: cell-based; set-up: expressed in transfected cells; host or cells: HEK293; conditions: OCT1, 20 μM inhibitor, 5 min; for inhibition at 5 min, 20 μM: human, OCT1-overexpressing HEK293 cells
T3 sequence (O15245 1-554): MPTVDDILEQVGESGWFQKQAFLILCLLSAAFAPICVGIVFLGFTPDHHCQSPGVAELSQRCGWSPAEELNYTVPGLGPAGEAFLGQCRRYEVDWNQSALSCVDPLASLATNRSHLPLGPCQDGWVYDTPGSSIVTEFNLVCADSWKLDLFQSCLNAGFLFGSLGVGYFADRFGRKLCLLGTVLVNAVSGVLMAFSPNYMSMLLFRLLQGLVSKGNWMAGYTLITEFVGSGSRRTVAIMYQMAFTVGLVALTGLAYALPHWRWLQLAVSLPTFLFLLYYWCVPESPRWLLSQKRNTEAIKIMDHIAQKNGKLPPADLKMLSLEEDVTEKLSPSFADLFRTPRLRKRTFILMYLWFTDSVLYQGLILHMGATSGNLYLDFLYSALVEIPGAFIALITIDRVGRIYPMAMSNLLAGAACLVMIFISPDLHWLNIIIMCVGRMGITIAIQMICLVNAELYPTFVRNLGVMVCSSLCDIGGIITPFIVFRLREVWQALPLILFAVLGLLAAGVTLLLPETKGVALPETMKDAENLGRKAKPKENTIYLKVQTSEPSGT
Method: Koepsell and Gorbulev (University of Würzburg, Germany).
Fluorescence quantification was performed in technical duplicates.

[1] = pH 7.4, probe ASP+ (2 μM), ASP+ inhibition [%], 2 μM ASP+
[2] = pH 7.4, probe (S,S)-ethambutol (2 μM), (S,S)-Ethambutol inhibition [%], 2 μM (S,S)-ethambutol
[3] = pH 7.4, probe ASP+ (2 μM), 2 μM ASP+, mean of three experiments, read-out: ASP+ inhibition [%]
[4] = pH 7.4, probe sumatriptan (2 μM), 2 μM sumatriptan, read-out: Sumatriptan inhibition [%]
[5] = pH 7.4, probe N-ethyllidocaine (2 μM), N-Ethyllidocaine inhibition [%], 2 μM N-ethyllidocaine
[6] = HEK293, 5 min, read-out: (S)-Zolmitriptan inhibition [%], OCT3, 20 μM inhibitor, 2 μM (S)-zolmitriptan, 5 min
[7] = HEK293, 5 min, read-out: (S,S)-Ethambutol inhibition [%], OCT3, 20 μM inhibitor, 2 μM (S,S)-ethambutol, 5 min
[8] = HEK293, OCT3, 20 μM inhibitor, 2 μM ASP+, 5 min, read-out: ASP+ inhibition [%]

SMILES	inhibition at 5 min, 20 μM (OCT2; [1])	inhibition at 5 min, 20 μM (OCT1; [2])	inhibition at 5 min, 20 μM (OCT1; [3])	inhibition at 5 min, 20 μM (OCT1; [4])	inhibition at 5 min, 20 μM (OCT2; [2])	inhibition at 5 min, 20 μM (OCT2; [5])	inhibition at 20 µM (OCT3; [6])	inhibition at 20 µM (OCT3; [7])	inhibition at 20 µM (OCT3; [8])	(S)-Zolmitriptan inhibition [%] (OCT3; OCT3, 20 μM inhibitor, 2 μM (S)-zolmitriptan, 5 min)	(S,S)-Ethambutol inhibition [%] (OCT3; OCT3, 20 μM inhibitor, 2 μM (S,S)-ethambutol, 5 min)	ASP+ inhibition [%] (OCT3; OCT3, 20 μM inhibitor, 2 μM ASP+, 5 min)	(S,S)-Ethambutol inhibition [%] (OCT1; 2 μM (S,S)-ethambutol)	ASP+ inhibition [%] (OCT1; 2 μM ASP+, mean of three experiments)	Sumatriptan inhibition [%] (OCT1; 2 μM sumatriptan)	(S,S)-Ethambutol inhibition [%] (OCT2; 2 μM (S,S)-ethambutol)	N-Ethyllidocaine inhibition [%] (OCT2; 2 μM N-ethyllidocaine)	ASP+ inhibition [%] (OCT3)	inhibition at 20 µM (OCT3; HEK293, 5 min, read-out: (S)-Zolmitriptan inhibition [%])	inhibition at 20 µM (OCT3; HEK293, 5 min, read-out: (S,S)-Ethambutol inhibition [%])
CNCC[C@@H](Oc1ccc(C(F)(F)F)cc1)c1ccccc1 [(R)-Fluoxetine]	65.6%	77.5%	45.6%	83.4%												28.2%	48.9%	-6.0%	17%	9.6%
CC(C)Cc1ccc([C@@H](C)C(=O)O)cc1 [(R)-Ibuprofen]	11.5%	5.6%	8.3%	-7.2%	7%	7.9%	-1.9%	3.2%	12.1%											
Cc1cccc(C)c1OC[C@@H](C)N [(R)-Mexiletine]	47%	79.6%	30.4%	85.6%	52.1%	52.2%	25%	11.6%	-17.2%											

More lines, main results first:

inhibition at 5 min, 20 μM (OCT2; [1])	inhibition at 5 min, 20 μM (OCT1; [2])	inhibition at 5 min, 20 μM (OCT1; [3])	inhibition at 5 min, 20 μM (OCT1; [4])	inhibition at 5 min, 20 μM (OCT2; [2])	inhibition at 5 min, 20 μM (OCT2; [5])	inhibition at 20 µM (OCT3; [6])	inhibition at 20 µM (OCT3; [7])	inhibition at 20 µM (OCT3; [8])	(S)-Zolmitriptan inhibition [%] (OCT3; OCT3, 20 μM inhibitor, 2 μM (S)-zolmitriptan, 5 min)	(S,S)-Ethambutol inhibition [%] (OCT3; OCT3, 20 μM inhibitor, 2 μM (S,S)-ethambutol, 5 min)	ASP+ inhibition [%] (OCT3; OCT3, 20 μM inhibitor, 2 μM ASP+, 5 min)	(S,S)-Ethambutol inhibition [%] (OCT1; 2 μM (S,S)-ethambutol)	ASP+ inhibition [%] (OCT1; 2 μM ASP+, mean of three experiments)	Sumatriptan inhibition [%] (OCT1; 2 μM sumatriptan)	SMILES	(S,S)-Ethambutol inhibition [%] (OCT2; 2 μM (S,S)-ethambutol)	N-Ethyllidocaine inhibition [%] (OCT2; 2 μM N-ethyllidocaine)	ASP+ inhibition [%] (OCT3)	inhibition at 20 µM (OCT3; HEK293, 5 min, read-out: (S)-Zolmitriptan inhibition [%])	inhibition at 20 µM (OCT3; HEK293, 5 min, read-out: (S,S)-Ethambutol inhibition [%])
23.1%					5.4%				-4.3%	5.7%	8.4%	-19.9%	-4.8%	-1.3%	NC[C@H](O)c1ccc(O)c(O)c1 [(R)-Norepinephrine]	-1.8%				
8.2%	6.3%	3.2%	-2.8%	-8.4%	-1.4%	-2.9%	5%	-4.1%							CNC[C@H](O)c1cccc(O)c1 [(R)-Phenylephrine]					
